Results on 19 compounds are retold here after patent publication US8303907B2, “Biosensors, and method and kits for using same” (priority 2002, dated 2012).

Experiment [1] concerns stabilised thylakoid membranes. As to the kind of experiment: Inhibition of photosynthetic efficiency of stabilised thylakoid membranes measured by fluorescence (F2-F1)/F2. It counts as biochemical, spinach. From the text: In a specific embodiment, a fluorometer continuously illuminates weakly the photosynthetic biological material with a light emitting diode (LED) emitting light at a wavelength of 475 or at 660 nm. Better results were obtained with the 475 nm wavelength. In order to obtain a higher sensitivity for measuring the photosynthetic response to toxic molecules, the intensity of the low excitation light was adjusted so as to obtain a F1 fluorescence level slightly higher than F0.
Fluorescence measured 2 sec after turning on one LED is F1. Three additional LEDs are then turned on so as to induce actinic illumination F2. Dispersion of LEDs is illustrated in FIG. 1. Light beams are oriented so as to form together a point of convergence precisely at the level where the photodiode is read. After a specific time, selected according to the nature of the thylakoid membranes used (eg. source of thylakoids, etc.) (Table 1), of the background noise and of the level of sensitivity sought, the F2 fluorescence is measured. To determine F1 and F2, the fluorometer measures wavelengths higher than 650 nm when the illumination is at 475 nm, and higher than 700 nm when illumination is at 660 nm.
The photosynthetic efficiency is determined with the following formula (F2−F1)/F2. Preferably, the photosynthetic efficiency of the stabilised thylakoids is 0.8±0.1. Any molecule affecting the photosystems modifies either F1 or F2 which modification necessarily disrupts (increases or decreases) the photosynthetic efficiency. The inhibition curve of a particular molecule is determined by calculating the activity of the photosystems in the absence of the molecule and in the presence of the molecule and comparing both efficiency as follows as described in Conrad 1993:
Without inhibitor (wi): efficiency(wi)=(F2(wi)−F1(wi))/F2(wi) With inhibitor: Relative photosynthetic efficiency(sample)=(F2(sample)−F1(sample))/F2(wi) Percentage efficiency: efficiency (%)=(efficiency(sample)×100)/efficiency(wi) Percentage inhibition: Inhibition (%)=100−efficiency (%)
The individual test tubes (100 μL lyophilised thylakoid membranes) were resuspended in 2 mL of water or tested samples. The concentrated batch of test tubes was resuspended in water, in Buffer 1 (HEPES-NaOH 50 mM pH 7.5 buffer containing sucrose 330 mM, MgCl2 20 mM, NH4Cl 10 mM, PEG 4000 4% (p/v)); or in Buffer 2 (phosphate buffer 0.1 M pH 6.5 containing sucrose 330 mM, NH4Cl 10 mM, MgCl2 20 mM, EDTA 10 mM, PEG 4000 4% (p/v)). A combination of buffered solutions 1 and 2 may also be used. […] These different buffers rs produce different results in the detection sensitivity (see Table 3 above). The final volume obtained depends on the quantity of lyophilised membranes used (2.5 mL for 25 tests, 5 mL for 50 tests).
Before use, the tubes containing stabilised thylakoid membranes were retrieved from storage. If they were stored in the freezer or the refrigerator, they were tempered 30 minutes at room temperature and in the dark. Two milliliters of fluid samples and the required volume of MgCl2 mother solution to get 0-10 mM MgCl2 (depending on tested samples) were added to 100 μL of the thylakoids membranes formulation at a concentration of 5 μg/mL. The tubes are then shook by inversion for 2 min. […]

Experiment [2] deals with Chemically immobilised thylakoids. As to conditions: chemically immobilised thylakoids (electrochemistry), Laberge (1999); cited from earlier work.
Experiment [3] deals with Physically immobilised thylakoids. The following applies: physically immobilised thylakoids (electrochemistry), Laberge (2000); cited from earlier work.
The target of experiment [4] is T1, PSII (Thermosynechococcus vestitus, UniProt P0A444). The following applies: PSII Clark electrode (amperometry), Koblizek (2002); cited from earlier work.
Experiment [5] has as its system algaes native. As to conditions: algaes native (fluorescence), Jay (1997); cited from earlier work.
The subject of experiment [6] is algaes native. As to conditions: algaes native (fluorescence), Conrad (1993); cited from earlier work.
Experiment [7] concerns the target T1, PSII. As to conditions: cited from earlier work.
Where [8] appears, read: Buffer 1 + 5 mM MgCl2 (in cuvette).
[9] abbreviates: membranes resuspended in Buffer 1.
Where [10] appears, read: membranes resuspended in Buffer 2.
Where [11] appears, read: stabilised thylakoid membranes of the present invention (fluorescence).

Converted amounts (≈) assume the structure as drawn. Where two headings read alike, the source gives them in different places.

The IC50 is the concentration that inhibits the measured activity by half.

With `CCNc1nc(Cl)nc(NCC)n1` [Simazine], in experiment [1] (setting [8]), the IC50 came to 0.942 µg/mL and the Threshold worked out at 0.06 mg/L. Besides, in experiment [1] (setting [9]), the IC50 was 0.028 µg/mL and the Threshold is 0.002 mg/L.

`[Hg+2]` [Hg]: the IC50 in experiment [1] (incubation time 15 min) is 2.5 µg/mL; in experiment [1] (incubation time 30 min), 2.0 µg/mL; in experiment [1] (incubation time 60 min), 2.0 µg/mL. Besides, the Threshold limit value in experiment [1] (incubation time 15 min) is reported as 0.7 mg/L; in experiment [1] (incubation time 30 min), 0.35 mg/L; in experiment [1] (incubation time 60 min), 0.35 mg/L.

For `CCNc1nc(Cl)nc(NC(C)C)n1` [Atrazine], the “Inhibition (%)” value was 23% in experiment [1] (Biological apple juice, atrazine 0.01 μg/mL); 61% in experiment [1] (Biological apple juice, atrazine 0.1 μg/mL); 71% in experiment [1] (Biological apple juice, atrazine 4 μg/mL); 15% in experiment [1] (Commercial apple juice (clear), pH 7, gravimetric filtration, atrazine 0.01 μg/mL); 60% in experiment [1] (Commercial apple juice (clear), pH 7, gravimetric filtration, atrazine 0.1 μg/mL); 74% in experiment [1] (Commercial apple juice (clear), pH 7, gravimetric filtration, atrazine 4 μg/mL). The “Inhibition (%)” value in experiment [1] (Commercial apple juice (with pulp), pH 7, gravimetric filtration, atrazine 0.01 μg/mL) amounted to 23%; in experiment [1] (Commercial apple juice (with pulp), pH 7, gravimetric filtration, atrazine 0.1 μg/mL), 58%; in experiment [1] (Commercial apple juice (with pulp), pH 7, gravimetric filtration, atrazine 4 μg/mL) it was 65%; in experiment [1] (Commercial apple juice, pH adjusted at 7, atrazine 0.01 μg/mL), 11%; in experiment [1] (Commercial apple juice, pH adjusted at 7, atrazine 0.1 μg/mL), 61%; in experiment [1] (Commercial apple juice, pH adjusted at 7, atrazine 4 μg/mL), 84%. In addition, the “Inhibition (%)” value in experiment [1] (Water, atrazine 0.01 μg/mL) turned out to be 16%; in experiment [1] (Water, atrazine 0.1 μg/mL), 60%; in experiment [1] (Water, atrazine 4 μg/mL) it was 80%. For the same compound, the IC50 in experiment [1] (setting [8]) was 0.04 µg/mL; in experiment [1] (setting [9]) it was 0.13 µg/mL; in experiment [1] (setting [10]), 0.33 µg/mL; in experiment [1] (setting [11]) it was 40 µg/mL; in experiment [2], 330 µg/mL (≈ 1530 µM); in experiment [3] it was 280 µg/mL (≈ 1300 µM). Besides, the IC50 at PSII [4] was 301 µM; in the experiment with algaes native [5], 62 µg/mL (≈ 287 µM); with algaes native [6], 150 µg/mL (≈ 695 µM); on PSII [7], 88.1 µM. The Threshold is 0.001 mg/L in experiment [1] (setting [8]); 0.002 mg/L in experiment [1] (setting [9]); 0.002 mg/L in experiment [1] (setting [10]); 0.001 mg/L in experiment [1] (setting [11]); 0.01 to 0.05 mg/L in experiment [2]; 0.0004 mg/L at PSII [4]. The Threshold in the experiment on algaes native [5] is 0.009 mg/L. Besides, the “% effect” value in experiment [1] (atrazine 0.001 mg/L) was found to be 4.2%; in experiment [1] (atrazine 0.004 mg/L), 14.9%; in experiment [1] (atrazine 0.04 mg/L), 55.3%; in experiment [1] (atrazine 0.1 mg/L) it was 69.4%. Also, the calculated inhibition in experiment [1] (sample with initial concentration of 4 mg/L of atrazine) is 64.8%. The detection threshold in experiment [1] (some of the thylakoid membranes preparations) is listed as 1 ppb.

Consider Nitrates, for which the “Effect (inhibition or stimulation) on thylakoid membranes” value (“Effect (inhibition or stimulation)” for short) in experiment [1] is recorded as “Weak inhibition”.

Take Ammoniacal nitrogen: in experiment [1], the “Effect (inhibition or stimulation)” value is recorded as “Stimulation”.

Take `CC(C)Nc1nc(N)nc(Cl)n1` [Desethyl atrazine]: the IC50 in experiment [1] (setting [8]) stood at 1.1 µg/mL; in experiment [1] (setting [9]) it was 1.08 µg/mL; in experiment [1] (setting [10]), 2.31 µg/mL. Moreover, the Threshold was 0.2 mg/L in experiment [1] (setting [8]), 0.013 mg/L in experiment [1] (setting [9]) and 0.2 mg/L in experiment [1] (setting [10]).

Consider `OO` [H2O2], for which the “Effect (inhibition or stimulation)” value in experiment [1] is given as “Inhibition”.

Regarding `O=C([O-])[O-].[Ca+2]` [CaCO3], in experiment [1], the “Effect (inhibition or stimulation)” value is “Stimulation”.

Take `CC(C)N1C(=O)c2ccccc2NS1(=O)=O` [Bentazon]: the IC50 in experiment [1] (setting [8]), in experiment [1] (setting [9]) and in experiment [1] (setting [10]) was >4 µg/mL each time. Also, the Threshold in experiment [1] (setting [8]) is given as >4 mg/L; in experiment [1] (setting [9]) it was 2 mg/L; in experiment [1] (setting [10]) it was 1.22 mg/L.

As for `CCCCCCCCCCCCCCCCCC(=O)O` [Stearic acid], in experiment [1], the “Effect (inhibition or stimulation)” value is “Stimulation”.

As to `[Ni+2]` [Ni], the concentration for half-maximal inhibition (IC50) in experiment [1] (incubation time 15 min), in experiment [1] (incubation time 30 min) and in experiment [1] (incubation time 60 min) was >100 µg/mL each time. The Threshold limit value in experiment [1] (incubation time 15 min) was 35 mg/L; in experiment [1] (incubation time 30 min), 7.1 mg/L; in experiment [1] (incubation time 60 min), 7.1 mg/L.

Consider `CCCCCCCC/C=C\CCCCCCCC(=O)O` [Oleic acid], for which the “Effect (inhibition or stimulation)” value in experiment [1] is “Inhibition”.

On to Phosphates, for which the “Effect (inhibition or stimulation)” value in experiment [1] is given as “Stimulation”.

For `N#Cc1cc(Br)c(O)c(Br)c1` [Bromoxynil], the IC50 is >0.1 µg/mL in experiment [1] (setting [8]), 0.443 µg/mL in experiment [1] (setting [9]) and 0.414 µg/mL in experiment [1] (setting [10]). Further, the Threshold in experiment [1] (setting [8]) is >0.1 mg/L; in experiment [1] (setting [9]) it was 0.013 mg/L; in experiment [1] (setting [10]) it was 0.06 mg/L.

As to `CCC(=O)Nc1ccc(Cl)c(Cl)c1` [Propanil], the figures for the IC50 in experiment [1] (setting [8]), in experiment [1] (setting [9]) and in experiment [1] (setting [10]) were 0.068 µg/mL, 0.179 µg/mL and 0.221 µg/mL, respectively. Also, the Threshold in experiment [1] (setting [8]) is reported as 0.0006 mg/L; in experiment [1] (setting [9]), 0.002 mg/L; in experiment [1] (setting [10]), 0.013 mg/L.

Take `CCNc1nc(Cl)nc(NC(C)(C)C#N)n1` [Cyanazine]: the IC50 in experiment [1] (setting [8]) is 0.028 µg/mL; in experiment [1] (setting [9]) it was 0.009 µg/mL; in experiment [1] (setting [10]) it was 0.135 µg/mL; in experiment [1] (setting [11]), 40 µg/mL; in experiment [2] it was 79 µg/mL (≈ 328 µM); in experiment [3], 310 µg/mL (≈ 1290 µM). In addition, the Threshold in experiment [1] (setting [8]) was determined as 0.0006 mg/L; in experiment [1] (setting [9]), 0.002 mg/L; in experiment [1] (setting [10]) it was 0.013 mg/L.

Regarding `[Zn+2]` [Zn], the values for the IC50 in experiment [1] (incubation time 15 min), in experiment [1] (incubation time 30 min) and in experiment [1] (incubation time 60 min) were >100 µg/mL, 70 µg/mL and 34 µg/mL, respectively. Further, the Threshold limit value stood at 16 mg/L in experiment [1] (incubation time 15 min), 16 mg/L in experiment [1] (incubation time 30 min) and 7.1 mg/L in experiment [1] (incubation time 60 min).

Take `CCNc1nc(N)nc(Cl)n1` [Deisopropyl atrazine]: the IC50 was >0.1 µg/mL in experiment [1] (setting [8]), >1 µg/mL in experiment [1] (setting [9]) and >4 µg/mL in experiment [1] (setting [10]). For the same compound, the figures for the Threshold in experiment [1] (setting [8]), in experiment [1] (setting [9]) and in experiment [1] (setting [10]) were >0.1 mg/L, 0.2 mg/L and 1.26 mg/L, respectively.

Turning to `[Cl-].[Na+]` [NaCl], the “Effect (inhibition or stimulation)” value in experiment [1] is on record as “Stimulation”.
